Data: the supplement of paper PMC10307832

Legend:
Test in all cases: relative viability (nuclei count vs DMSO), 5 days (fraction); higher = more cells survive
CAP-232 + Navitoclax = compound: C[C@H]([C@@H](C(=O)N)NC(=O)[C@@H]1CSSC[C@@H](C(=O)N[C@H](C(=O)N[C@@H](C(=O)N[C@H](C(=O)N1)CCCCN)CC2=CNC3=CC=CC=C32)CC4=CC=C(C=C4)O)NC(=O)[C@@H](CC5=CC=CC=C5)N)O [CAP-232] + CC1(C)CCC(c2ccc(Cl)cc2)=C(CN2CCN(c3ccc(C(=O)NS(=O)(=O)c4ccc(N[C@H](CCN5CCOCC5)CSc5ccccc5)c(S(=O)(=O)C(F)(F)F)c4)cc3)CC2)C1 [Navitoclax] (partner 0.5 µM)
In short: (§1)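 One day after seeding in 1536-well plates, lung cancer cell lines were dosed by pin tool. Dosing was either single-drug or a fixed anchor-drug dose plus five library-drug doses (not always all listed) in √10 steps. After 5 days, nuclei were stained in one fix-and-stain step and counted on 4× images, and relative viability is the nuclei count of treated wells over that of vehicle wells, given as the median of duplicate plates.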

CAP-232 + Foretinib = compound: C[C@H]([C@@H](C(=O)N)NC(=O)[C@@H]1CSSC[C@@H](C(=O)N[C@H](C(=O)N[C@@H](C(=O)N[C@H](C(=O)N1)CCCCN)CC2=CNC3=CC=CC=C32)CC4=CC=C(C=C4)O)NC(=O)[C@@H](CC5=CC=CC=C5)N)O [CAP-232] + COc1cc2c(Oc3ccc(NC(=O)C4(C(=O)Nc5ccc(F)cc5)CC4)cc3F)ccnc2cc1OCCCN1CCOCC1 [Foretinib] (partner 0.25 µM)
In short: as §1

CAP-232 + OSI-027 = compound: C[C@H]([C@@H](C(=O)N)NC(=O)[C@@H]1CSSC[C@@H](C(=O)N[C@H](C(=O)N[C@@H](C(=O)N[C@H](C(=O)N1)CCCCN)CC2=CNC3=CC=CC=C32)CC4=CC=C(C=C4)O)NC(=O)[C@@H](CC5=CC=CC=C5)N)O [CAP-232] + COc1cccc2cc(-c3nc([C@H]4CC[C@H](C(=O)O)CC4)n4ncnc(N)c34)[nH]c12 [OSI-027] (partner 0.5 µM)
In short: as §1

CAP-232 + Tozasertib = compound: C[C@H]([C@@H](C(=O)N)NC(=O)[C@@H]1CSSC[C@@H](C(=O)N[C@H](C(=O)N[C@@H](C(=O)N[C@H](C(=O)N1)CCCCN)CC2=CNC3=CC=CC=C32)CC4=CC=C(C=C4)O)NC(=O)[C@@H](CC5=CC=CC=C5)N)O [CAP-232] + Cc1cc(Nc2cc(N3CCN(C)CC3)nc(Sc3ccc(NC(=O)C4CC4)cc3)n2)n[nH]1 [Tozasertib] (partner 0.1 µM)
In short: as §1

CAP-232 + Pemetrexed = compound: C[C@H]([C@@H](C(=O)N)NC(=O)[C@@H]1CSSC[C@@H](C(=O)N[C@H](C(=O)N[C@@H](C(=O)N[C@H](C(=O)N1)CCCCN)CC2=CNC3=CC=CC=C32)CC4=CC=C(C=C4)O)NC(=O)[C@@H](CC5=CC=CC=C5)N)O [CAP-232] + Nc1nc2[nH]cc(CCc3ccc(C(=O)N[C@@H](CCC(=O)O)C(=O)O)cc3)c2c(=O)[nH]1 [Pemetrexed] (partner 0.2 µM)
In short: as §1

Cell Line | relative viability (CAP-232 + Navitoclax; first compound 0.4 µM) | relative viability (CAP-232 + Navitoclax; first compound 1.265 µM) | relative viability (CAP-232 + Navitoclax; first compound 4 µM) | relative viability (CAP-232 + Navitoclax; first compound 12.65 µM) | relative viability (CAP-232 + Foretinib; first compound 0.4 µM) | relative viability (CAP-232 + Foretinib; first compound 1.265 µM) | relative viability (CAP-232 + Foretinib; first compound 4 µM) | relative viability (CAP-232 + Foretinib; first compound 12.65 µM) | relative viability (CAP-232 + OSI-027; first compound 0.4 µM) | relative viability (CAP-232 + OSI-027; first compound 1.265 µM) | relative viability (CAP-232 + OSI-027; first compound 4 µM) | relative viability (CAP-232 + OSI-027; first compound 12.65 µM) | relative viability (CAP-232 + Tozasertib; first compound 0.4 µM) | relative viability (CAP-232 + Tozasertib; first compound 1.265 µM) | relative viability (CAP-232 + Tozasertib; first compound 4 µM) | relative viability (CAP-232 + Tozasertib; first compound 12.65 µM) | relative viability (CAP-232 + Pemetrexed; first compound 0.4 µM) | relative viability (CAP-232 + Pemetrexed; first compound 1.265 µM) | relative viability (CAP-232 + Pemetrexed; first compound 4 µM) | relative viability (CAP-232 + Pemetrexed; first compound 12.65 µM)
NCI-H2405 | 0.821 | 1.07 | 0.795 | 0.562 | 1.04 | 1.11 | 1.05 | 0.79 | 0.626 | 0.648 | 0.693 | 0.518 | 0.728 | 0.751 | 0.761 | 0.683 | 1.11 | 1.1 | 0.986 | 0.512
NCI-H3122 | 1.01 | 0.988 | 1.02 | 1.03 | 0.91 | 0.97 | 0.795 | 1.03 | 0.629 | 1.01 | 1.07 | 0.474 | 0.344 | 0.36 | 0.292 | 0.252 | 0.2 | 0.226 | 0.201 | 0.194
PC-3 [JPC-3] | 0.827 | 0.801 | 0.725 | 0.698 | 1.1 | 1.02 | 1.05 | 0.98 | 0.853 | 0.794 | 0.796 | 0.73 | 1.05 | 0.949 | 0.924 | 0.91 | 1.63 | 1.05 | 0.992 | 0.888
PC-14 | 0.93 | 1.02 | 1.16 | 0.848 | 1.06 | 0.939 | 1.06 | 0.86 | 0.8 | 0.848 | 1.08 | 0.397 | 0.644 | 0.575 | 0.542 | 0.565 | 0.121 | 0.123 | 0.137 | 0.127
RERF-LC-KJ | 1.05 | 1.08 | 1.02 | 0.703 | 0.87 | 0.993 | 0.951 | 0.884 | 0.588 | 0.533 | 0.486 | 0.231 | 0.562 | 0.444 | 0.433 | 0.351 | 0.499 | 0.534 | 0.441 | 0.407
SK-LU-1 | 0.911 | 0.998 | 1.12 | 0.863 | 0.759 | 0.937 | 0.913 | 0.652 | 0.329 | 0.342 | 0.308 | 0.332 | 0.309 | 0.314 | 0.289 | 0.203 | 0.916 | 0.996 | 1.03 | 0.658
SK-MES-1 | 1.28 | 1.17 | 1.45 | 1.1 | 0.935 | 1.04 | 0.95 | 0.771 | 0.696 | 0.557 | 0.583 | 0.264 | 0.903 | 0.893 | 0.905 | 0.774 | 1.04 | 0.95 | 0.961 | 0.608
SW 1573 | 0.912 | 1.1 | 0.988 | 0.635 | 0.873 | 0.836 | 0.903 | 1.03 | 0.612 | 0.785 | 0.678 | 0.111 | 0.185 | 0.207 | 0.189 | 0.126 | 0.801 | 0.879 | 0.789 | 0.103
UMC-11 | 0.317 | 0.307 | 0.295 | 0.297 | 1.09 | 1.1 | 1.12 | 0.977 | 0.474 | 0.484 | 0.517 | 0.39 | 0.202 | 0.191 | 0.214 | 0.17 | 0.824 | 0.843 | 0.821 | 0.613
